Measured values from the supplement of paper PMC10627819.

Key:
Assay in all cases: Bliss interaction score (quartile over a dose matrix) (fitness difference); higher = more antagonism (negative = synergy)
S. aureus Newman = test system: S. aureus Newman
Method in brief: (§1)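 Growth in each well was taken as OD595 at entry into stationary phase. Dividing by the plate's robust no-drug mean and capping at 1 gave fitness, and single-drug fitness was inferred from the combination data. The Bliss score, observed minus product-expected fitness, is summarised by quartiles over technical, biological and donor/recipient replicates.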

S. pneumoniae D39V = test system: S. pneumoniae D39V
Method in brief: as §1

B. subtilis 168 = test system: B. subtilis 168
Method in brief: as §1

S. aureus DSM 20231 = test system: S. aureus DSM 20231
Method in brief: as §1
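Also: first quartile when negative (synergy) and third quartile when positive (antagonism).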

Row | SMILES | Bliss interaction score (S. aureus Newman) | Bliss interaction score (S. pneumoniae D39V) | Bliss interaction score (B. subtilis 168) | Bliss interaction score (S. aureus DSM 20231)
1 | CC1(C)S[C@@H]2[C@H](NC(=O)Cc3ccccc3)C(=O)N2[C@H]1C(=O)O [PenicillinG] + CC1=C\[C@@H](O)CC(=O)Cc2nc(co2)C(=O)N2CCC=C2C(=O)O[C@H](C(C)C)[C@H](C)/C=C/C(=O)NC\C=C\1 [Virginiamycin M1] | 0.0409 | 0.099 | 0.0479 | -0.0526
2 | CC1(C)S[C@@H]2[C@H](NC(=O)Cc3ccccc3)C(=O)N2[C@H]1C(=O)O [PenicillinG] + CN1C2=CC=CC=C2N=C3C1=CC=CC3=O [Pyocyanin] | 0.0699 | 0.144 | -0.0227 | 0.0541
3 | CN(C)[C@@H]1C(O)=C(C(N)=O)C(=O)[C@@]2(O)C(O)=C3C(=O)c4c(O)ccc(Cl)c4[C@@](C)(O)[C@H]3C[C@@H]12 [Clortetracycline] + COc1c(N2C[C@@H]3CCCN[C@@H]3C2)c(F)cc2c(=O)c(C(=O)O)cn(C3CC3)c12 [Moxifloxacin] | 0.101 | 0.0374 | -0.0182 | 0.119
4 | CN(C)[C@@H]1C(O)=C(C(N)=O)C(=O)[C@@]2(O)C(O)=C3C(=O)c4c(O)ccc(Cl)c4[C@@](C)(O)[C@H]3C[C@@H]12 [Clortetracycline] + Oc1cc(Cl)ccc1Oc1ccc(Cl)cc1Cl [Triclosan] | 0.021 | 0.117 | 0.0578 | -0.0936
5 | CN(C)[C@@H]1C(O)=C(C(N)=O)C(=O)[C@@]2(O)C(O)=C3C(=O)c4c(O)ccc(Cl)c4[C@@](C)(O)[C@H]3C[C@@H]12 [Clortetracycline] + CN(C)C(=O)C(CCN1CCC(O)(c2ccc(Cl)cc2)CC1)(c1ccccc1)c1ccccc1 [Loperamide] | -0.0458 | 0.0856 | -0.221 | 0.0792
6 | N#CC(C#N)=NNc1cccc(Cl)c1 [CCCP] + Cc1cc(NS(=O)(=O)c2ccc(N)cc2)no1 [Sulfamethoxazol] | -0.0463 | 0.0794 | -0.0348 | -0.0343
7 | CN(C)c1cc(NC(=O)CNC(C)(C)C)c(O)c2c1C[C@H]1C[C@H]3[C@H](N(C)C)C(O)=C(C(N)=O)C(=O)[C@@]3(O)C(O)=C1C2=O [Tigecycline] + Oc1cc(Cl)ccc1Oc1ccc(Cl)cc1Cl [Triclosan] | 0.0252 | 0.0471 | 0.0719 | 0.101
8 | CN(C)[C@@H]1C(O)=C(C(N)=O)C(=O)[C@@]2(O)C(O)=C3C(=O)c4c(O)ccc(Cl)c4[C@@](C)(O)[C@H]3C[C@@H]12 [Clortetracycline] + CN1C2=CC=CC=C2N=C3C1=CC=CC3=O [Pyocyanin] | -0.0515 | -0.0238 | 0.0851 | 0.0397
9 | C[C@H]1c2cccc(O)c2C(=O)C2=C(O)[C@]3(O)C(=O)C(C(N)=O)=C(O)[C@@H](N(C)C)[C@@H]3[C@@H](O)[C@@H]21 [Doxycycline] + CO[C@@]12[C@H](COC(N)=O)C3=C(C(=O)C(C)=C(N)C3=O)N1C[C@@H]1N[C@@H]12 [MitomycinC] | 0.0515 | -0.0943 | 0.0704 | -0.0478
10 | N#CC(C#N)=NNc1cccc(Cl)c1 [CCCP] + CC(=O)O[C@H]1C[C@@]2(C)[C@@H](C[C@@H](O)[C@H]3[C@@]4(C)CC[C@@H](O)[C@@H](C)[C@@H]4CC[C@@]32C)/C1=C(\CCC=C(C)C)C(=O)O [Fusidic acid] | 0.0673 | 0.122 | -0.18 | 0.0429
11 | N#CC(C#N)=NNc1cccc(Cl)c1 [CCCP] + N[C@@H]1CONC1=O [CycloserineD] | -0.0487 | 0.102 | 0.0617 | -0.0883
12 | C[C@H]1c2cccc(O)c2C(=O)C2=C(O)[C@]3(O)C(=O)C(C(N)=O)=C(O)[C@@H](N(C)C)[C@@H]3[C@@H](O)[C@@H]21 [Doxycycline] + CC[C@H]1OC(=O)[C@H](C)C(=O)[C@H](C)[C@@H](O[C@@H]2O[C@H](C)C[C@H](N(C)C)[C@H]2O)[C@](C)(OC)C[C@@H](C)C(=O)[C@H](C)[C@H]2N(CCCCn3cnc(-c4cccnc4)c3)C(=O)O[C@]12C [Telithromycin] | -0.0224 | -0.261 | -0.326 | -0.0892
13 | CO/N=C(\C(=O)N[C@@H]1C(=O)N2C(C(=O)O)=C(COC(N)=O)CS[C@H]12)c1ccco1 [Cefuroxime] + O=C1CN(/N=C/c2ccc([N+](=O)[O-])o2)C(=O)N1 [Nitrofurantoin] | -0.0317 | 0.0749 | -0.104 | 0.0612
14 | N#CC(C#N)=NNc1cccc(Cl)c1 [CCCP] + COc1ccc(C[C@H](N)C(=O)N[C@H]2[C@@H](O)[C@H](n3cnc4c(N(C)C)ncnc43)O[C@@H]2CO)cc1 [Puromycin] | 0.0515 | 0.0604 | 0.0243 | 0.0553
15 | COc1cccc2c1C(=O)c1c(O)c3c(c(O)c1C2=O)C[C@@](O)(C(=O)CO)C[C@@H]3O[C@H]1C[C@H](N)[C@H](O)[C@H](C)O1 [Doxorubicin] + CC[C@H]1OC(=O)[C@H](C)C(=O)[C@H](C)[C@@H](O[C@@H]2O[C@H](C)C[C@H](N(C)C)[C@H]2O)[C@](C)(OC)C[C@@H](C)C(=O)[C@H](C)[C@H]2N(CCCCn3cnc(-c4cccnc4)c3)C(=O)O[C@]12C [Telithromycin] | 0.0489 | -0.0361 | 0.0872 | -0.0292
16 | C[C@H]1c2cccc(O)c2C(=O)C2=C(O)[C@]3(O)C(=O)C(C(N)=O)=C(O)[C@@H](N(C)C)[C@@H]3[C@@H](O)[C@@H]21 [Doxycycline] + CC1(C)S[C@@H]2[C@H](NC(=O)Cc3ccccc3)C(=O)N2[C@H]1C(=O)O [PenicillinG] | -0.027 | 0.106 | 0.108 | 0.0444
17 | CO/N=C(\C(=O)N[C@@H]1C(=O)N2C(C(=O)O)=C(COC(N)=O)CS[C@H]12)c1ccco1 [Cefuroxime] + CC[C@H]1OC(=O)[C@H](C)C(=O)[C@H](C)[C@@H](O[C@@H]2O[C@H](C)C[C@H](N(C)C)[C@H]2O)[C@](C)(OC)C[C@@H](C)C(=O)[C@H](C)[C@H]2N(CCCCn3cnc(-c4cccnc4)c3)C(=O)O[C@]12C [Telithromycin] | 0.272 | 0.0493 | 0.0752 | -0.0813

Row | SMILES | Bliss interaction score (S. aureus Newman) | Bliss interaction score (S. pneumoniae D39V) | Bliss interaction score (B. subtilis 168) | Bliss interaction score (S. aureus DSM 20231)
18 | CN(C)[C@@H]1C(O)=C(C(N)=O)C(=O)[C@@]2(O)C(O)=C3C(=O)c4c(O)ccc(Cl)c4[C@@](C)(O)[C@H]3C[C@@H]12 [Clortetracycline] + COc1cc(Cc2cnc(N)nc2N)cc(OC)c1OC [Trimethoprim] | 0.102 | -0.0376 | 0.135 | 0.0736
19 | CN(C)[C@@H]1C(O)=C(C(N)=O)C(=O)[C@@]2(O)C(O)=C3C(=O)c4c(O)ccc(Cl)c4[C@@](C)(O)[C@H]3C[C@@H]12 [Clortetracycline] + COc1cccc2c1C(=O)c1c(O)c3c(c(O)c1C2=O)C[C@@](O)(C(=O)CO)C[C@@H]3O[C@H]1C[C@H](N)[C@H](O)[C@H](C)O1 [Doxorubicin] | -0.0472 | -0.182 | 0.0883 | 0.0615
20 | CO/N=C(\C(=O)N[C@@H]1C(=O)N2C(C(=O)O)=C(COC(C)=O)CS[C@H]12)c1csc(N)n1 [Cefotaxime] + CN[C@H](CC(C)C)C(=O)N[C@H]1C(=O)N[C@@H](CC(N)=O)C(=O)N[C@H]2C(=O)N[C@H]3C(=O)N[C@H](C(=O)N[C@H](C(=O)O)c4cc(O)cc(O)c4-c4cc3ccc4O)[C@H](O[C@H]3C[C@](C)(N)[C@@H](O)[C@H](C)O3)c3ccc(c(Cl)c3)Oc3cc2cc(c3O[C@@H]2O[C@H](CO)[C@@H](O)[C@H](O)[C@H]2O[C@H]2C[C@](C)(NCc3ccc(-c4ccc(Cl)cc4)cc3)[C@@H](O)[C@H](C)O2)Oc2ccc(cc2Cl)[C@H]1O [Oritavancin] | 0.0965 | -0.106 | 0.0516 | 0.0947
21 | N#CC(C#N)=NNc1cccc(Cl)c1 [CCCP] + CN1C2=CC=CC=C2N=C3C1=CC=CC3=O [Pyocyanin] | -0.0376 | -0.0451 | -0.0772 | -0.0215
22 | CC(=O)Oc1ccccc1C(=O)O [Acetylsalicylicacid] + Oc1cc(Cl)ccc1Oc1ccc(Cl)cc1Cl [Triclosan] | -0.0273 | -0.0513 | 0.129 | -0.114
23 | CN(C)[C@@H]1C(O)=C(C(N)=O)C(=O)[C@@]2(O)C(O)=C3C(=O)c4c(O)ccc(Cl)c4[C@@](C)(O)[C@H]3C[C@@H]12 [Clortetracycline] + CN(N=O)C(=O)N[C@@H](C=O)[C@@H](O)[C@H](O)[C@H](O)CO [Streptozotocin] | 0.0347 | -0.0534 | 0.073 | 0.0625
24 | CC(=O)Oc1ccccc1C(=O)O [Acetylsalicylicacid] + CO/N=C(\C(=O)N[C@@H]1C(=O)N2C(C(=O)O)=C(COC(C)=O)CS[C@H]12)c1csc(N)n1 [Cefotaxime] | -0.0434 | 0.138 | 0.172 | -0.1
25 | CC(=O)Oc1ccccc1C(=O)O [Acetylsalicylicacid] + Cn1nnc(-c2ccc(-c3ccc(N4C[C@H](CO)OC4=O)cc3F)cn2)n1 [Tedizolid] | 0.0641 | 0.0802 | -0.184 | -0.124
26 | CO/N=C(\C(=O)N[C@@H]1C(=O)N2C(C(=O)O)=C(COC(N)=O)CS[C@H]12)c1ccco1 [Cefuroxime] + CC[C@H]1OC(=O)[C@H](C)[C@@H](O[C@H]2C[C@@](C)(OC)[C@@H](O)[C@H](C)O2)[C@H](C)[C@@H](O[C@@H]2O[C@H](C)C[C@H](N(C)C)[C@H]2O)[C@](C)(OC)C[C@@H](C)C(=O)[C@H](C)[C@@H](O)[C@]1(C)O [Clarithromycin] | 0.0734 | 0.0629 | -0.0354 | -0.249
27 | CN(C)[C@@H]1C(O)=C(C(N)=O)C(=O)[C@@]2(O)C(O)=C3C(=O)c4c(O)ccc(Cl)c4[C@@](C)(O)[C@H]3C[C@@H]12 [Clortetracycline] + Cc1ncc([N+](=O)[O-])n1CCO [Metronidazole] | 0.0714 | 0.104 | 0.141 | 0.0551
28 | C[C@H]1c2cccc(O)c2C(=O)C2=C(O)[C@]3(O)C(=O)C(C(N)=O)=C(O)[C@@H](N(C)C)[C@@H]3[C@@H](O)[C@@H]21 [Doxycycline] + Oc1cc(Cl)ccc1Oc1ccc(Cl)cc1Cl [Triclosan] | 0.0244 | 0.0668 | -0.0554 | -0.0352
29 | Cc1ncc([N+](=O)[O-])n1CCO [Metronidazole] + CC1(C)S[C@@H]2[C@H](NC(=O)Cc3ccccc3)C(=O)N2[C@H]1C(=O)O [PenicillinG] | 0.0592 | 0.114 | 0.0322 | 0.0819
30 | CC(=O)Oc1ccccc1C(=O)O [Acetylsalicylicacid] + COc1ccc(C[C@H](N)C(=O)N[C@H]2[C@@H](O)[C@H](n3cnc4c(N(C)C)ncnc43)O[C@@H]2CO)cc1 [Puromycin] | -0.0494 | 0.149 | 0.0812 | 0.0722
31 | CC(=O)Oc1ccccc1C(=O)O [Acetylsalicylicacid] + CO[C@H]1/C=C/O[C@@]2(C)Oc3c(C)c(O)c4c(O)c(c(/C=N/N5CCN(C)CC5)c(O)c4c3C2=O)NC(=O)/C(C)=C\C=C\[C@H](C)[C@H](O)[C@@H](C)[C@@H](O)[C@@H](C)[C@H](OC(C)=O)[C@@H]1C [Rifampicin] | 0.036 | 0.0476 | 0.131 | 0.0617
32 | COc1cccc2c1C(=O)c1c(O)c3c(c(O)c1C2=O)C[C@@](O)(C(=O)CO)C[C@@H]3O[C@H]1C[C@H](N)[C@H](O)[C@H](C)O1 [Doxorubicin] + CO[C@@]12[C@H](COC(N)=O)C3=C(C(=O)C(C)=C(N)C3=O)N1C[C@@H]1N[C@@H]12 [MitomycinC] | 0.122 | -0.0709 | -0.269 | -0.0314
33 | CN(C)[C@@H]1C(O)=C(C(N)=O)C(=O)[C@@]2(O)C(O)=C3C(=O)c4c(O)ccc(Cl)c4[C@@](C)(O)[C@H]3C[C@@H]12 [Clortetracycline] + C[C@@H](O)[C@H]1C(=O)N2C(C(=O)O)=C(SCCNC=N)C[C@H]12 [Imipenem] | 0.0268 | -0.0487 | 0.194 | 0.039
34 | CC1(C)S[C@@H]2[C@H](NC(=O)Cc3ccccc3)C(=O)N2[C@H]1C(=O)O [PenicillinG] + Oc1cc(Cl)ccc1Oc1ccc(Cl)cc1Cl [Triclosan] | 0.0326 | 0.0767 | 0.0307 | 0.0254
